Values of other authors, collected in publication PMC3461233 (Angewandte Chemie (International ed. in English), 2012).

## Arg9
  spontaneous translocation across synthetic membranes: does not translocate spontaneously
